Assay results taken from ChEMBL document CHEMBL1134520, “Potent somatostatin undecapeptide agonists selective for somatostatin receptor 1 (sst1)” (J Med Chem, 2001).
Bridge positions count the residues as written; N and C are the ends. Square brackets hold non-standard residues; d marks the D form. Peptide text beside a SMILES is read from it. Phe(4-CH2NHiPr) = CC(C)NCc1ccc(C[C@H](N)C(=O)O)cc1; Phe(4-CH2NH2) = NCc1ccc(C[C@H](N)C(=O)O)cc1; d2Nal = N[C@H](Cc1ccc2ccccc2c1)C(=O)O

How the values were obtained:
[1] = biological target: Somatostatin receptor type 5 (Homo sapiens, UniProt P35346); experiment: Tested for ability to bind to 20 uM thick cryostat sections of a membrane pellet of cells transfected with human cloned somatostatin (sst) receptor subtype 5.
[2] = biological target: Somatostatin receptor type 1 (Homo sapiens, UniProt P30872); experiment: Tested for ability to bind to 20 uM thick cryostat sections of a membrane pellet of cells transfected with human cloned somatostatin (sst) receptor subtype 1.
[3] = biological target: Somatostatin receptor type 3 (Homo sapiens, UniProt P32745); experiment: Tested for ability to bind to 20 uM thick cryostat sections of a membrane pellet of cells transfected with human cloned somatostatin (sst) receptor subtype 3.
[4] = biological target: Somatostatin receptor type 2 (Homo sapiens, UniProt P30874); experiment: Tested for ability to bind to 20 uM thick cryostat sections of a membrane pellet of cells transfected with human cloned somatostatin (sst) receptor subtype 2.
[5] = biological target: Somatostatin receptor type 4 (Homo sapiens, UniProt P31391); experiment: Tested for ability to bind to 20 uM thick cryostat sections of a membrane pellet of cells transfected with human cloned somatostatin (sst) receptor subtype 4.
Somatostatin receptor type 4, sequence (P31391 whole entry): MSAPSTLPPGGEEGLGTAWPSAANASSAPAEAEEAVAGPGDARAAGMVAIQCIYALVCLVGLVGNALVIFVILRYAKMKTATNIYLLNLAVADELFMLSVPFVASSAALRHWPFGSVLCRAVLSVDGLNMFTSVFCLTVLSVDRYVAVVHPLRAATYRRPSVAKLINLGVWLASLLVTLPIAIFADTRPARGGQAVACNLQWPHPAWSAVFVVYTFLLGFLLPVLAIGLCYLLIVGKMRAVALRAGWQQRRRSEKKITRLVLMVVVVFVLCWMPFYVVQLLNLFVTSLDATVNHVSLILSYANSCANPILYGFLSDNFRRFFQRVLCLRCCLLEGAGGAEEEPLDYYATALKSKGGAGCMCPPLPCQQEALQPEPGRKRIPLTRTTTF

Somatostatin receptor type 5, sequence (P35346 whole entry): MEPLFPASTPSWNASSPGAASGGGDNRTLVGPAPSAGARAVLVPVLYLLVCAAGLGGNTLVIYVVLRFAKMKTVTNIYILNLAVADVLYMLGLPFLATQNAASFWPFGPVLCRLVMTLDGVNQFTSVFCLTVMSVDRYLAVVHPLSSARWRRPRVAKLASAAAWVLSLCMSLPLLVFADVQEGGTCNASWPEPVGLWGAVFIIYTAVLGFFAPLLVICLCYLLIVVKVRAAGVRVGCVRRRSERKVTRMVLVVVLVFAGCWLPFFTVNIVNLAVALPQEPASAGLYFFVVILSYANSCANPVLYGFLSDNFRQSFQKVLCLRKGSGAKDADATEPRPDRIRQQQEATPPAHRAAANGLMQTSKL
Somatostatin receptor type 2, sequence (P30874 whole entry): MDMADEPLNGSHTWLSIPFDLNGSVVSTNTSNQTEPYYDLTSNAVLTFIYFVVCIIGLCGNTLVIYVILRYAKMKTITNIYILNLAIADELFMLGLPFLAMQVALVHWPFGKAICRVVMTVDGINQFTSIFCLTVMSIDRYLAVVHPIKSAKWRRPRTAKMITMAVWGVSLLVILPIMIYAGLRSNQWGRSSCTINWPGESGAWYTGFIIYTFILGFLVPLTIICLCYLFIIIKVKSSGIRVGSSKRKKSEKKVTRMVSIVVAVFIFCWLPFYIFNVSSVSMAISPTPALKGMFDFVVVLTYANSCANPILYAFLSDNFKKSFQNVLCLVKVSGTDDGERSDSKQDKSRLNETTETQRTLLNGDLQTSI
Somatostatin receptor type 3, sequence (P32745 whole entry): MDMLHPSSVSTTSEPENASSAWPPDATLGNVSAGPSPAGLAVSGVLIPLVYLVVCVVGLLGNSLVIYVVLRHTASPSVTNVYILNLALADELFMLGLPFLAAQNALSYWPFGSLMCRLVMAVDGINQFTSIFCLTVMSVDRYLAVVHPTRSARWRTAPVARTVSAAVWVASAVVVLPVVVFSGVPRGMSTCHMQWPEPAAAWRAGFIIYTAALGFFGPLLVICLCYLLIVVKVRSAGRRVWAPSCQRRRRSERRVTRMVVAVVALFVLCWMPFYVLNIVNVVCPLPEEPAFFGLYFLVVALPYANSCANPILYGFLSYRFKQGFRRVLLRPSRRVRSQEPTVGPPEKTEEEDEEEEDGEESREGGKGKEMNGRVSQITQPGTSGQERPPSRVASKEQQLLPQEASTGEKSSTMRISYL
Somatostatin receptor type 1, sequence (P30872 whole entry): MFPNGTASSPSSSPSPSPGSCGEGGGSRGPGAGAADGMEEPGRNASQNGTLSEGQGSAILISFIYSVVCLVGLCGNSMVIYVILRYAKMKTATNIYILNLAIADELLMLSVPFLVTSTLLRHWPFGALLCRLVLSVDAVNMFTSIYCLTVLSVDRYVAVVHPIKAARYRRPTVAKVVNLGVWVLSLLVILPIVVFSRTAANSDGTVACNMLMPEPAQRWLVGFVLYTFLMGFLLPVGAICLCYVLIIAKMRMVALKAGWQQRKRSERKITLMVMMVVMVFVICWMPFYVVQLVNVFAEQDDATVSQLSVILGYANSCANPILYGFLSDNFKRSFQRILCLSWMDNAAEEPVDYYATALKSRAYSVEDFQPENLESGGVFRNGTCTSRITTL

| IC50 [1] [nM] | IC50 [2] [nM] | IC50 [3] [nM] | IC50 [4] [nM] | IC50 [5] [nM] | Structure (SMILES) |
| --- | --- | --- | --- | --- | --- |
| > 1000 | > 1000 | > 1000 | > 1000 | > 1000 | CC(C)NCc1ccc(C[C@@H]2NC(=O)[C@@H](Cc3ccc4ccccc4c3)NC(=O)[C@H](Cc3ccccc3)NC(=O)[C@H](Cc3ccccc3)NC(=O)[C@H](CCCCN)NC(=O)[C@H](NC(=O)CCc3ccc(O)cc3)CSSC[C@H](C(=O)O)NC(=O)[C@H](CO)NC(=O)[C@H]([C@@H](C)O)NC(=O)[C@H](Cc3ccccc3)NC(=O)[C@H]([C@@H](C)O)NC2=O)cc1 |
| > 10000 | 563 | > 1000 | > 1000 | > 10000 | CC(C)NCc1ccc(C[C@@H]2NC(=O)[C@@H](Cc3ccc4ccccc4c3)NC(=O)[C@H](Cc3ccccc3)NC(=O)[C@H](Cc3ccccc3)NC(=O)[C@H](CCCCN)NC(=O)[C@@H](NC(=O)CCc3ccc(O)cc3)CSSC[C@@H](C(=O)O)NC(=O)[C@H](CO)NC(=O)[C@H]([C@@H](C)O)NC(=O)[C@H](Cc3ccccc3)NC(=O)[C@H]([C@@H](C)O)NC2=O)cc1 |
| 16.7 | 5.4 | 4.3 | 0.33 | 3.5 | C[C@@H](O)[C@@H]1NC(=O)[C@H](Cc2ccccc2)NC(=O)[C@H]([C@@H](C)O)NC(=O)[C@H](CCCCN)NC(=O)[C@@H](Cc2c[nH]c3ccccc23)NC(=O)[C@H](Cc2ccccc2)NC(=O)[C@H](Cc2ccccc2)NC(=O)[C@H](CC(N)=O)NC(=O)[C@H](CCCCN)NC(=O)[C@@H](N)CSSC[C@@H](C(=O)O)NC(=O)[C@H](CO)NC1=O |
| > 10000 | 450 | > 1000 | > 10000 | > 1000 | CCN=C(NCC)NCCCC[C@@H]1NC(=O)[C@@H](Cc2c[nH]c3ccccc23)NC(=O)[C@H](Cc2ccccc2)NC(=O)[C@H](Cc2ccccc2)NC(=O)[C@H](CCCCN)NC(=O)[C@@H](N)CSSC[C@@H](C(=O)O)NC(=O)[C@H](CO)NC(=O)[C@H]([C@@H](C)O)NC(=O)[C@H](Cc2ccccc2)NC(=O)[C@H]([C@@H](C)O)NC1=O |
| > 1000 | 24 | 633 | > 1000 | > 1000 | CC(C)NCc1ccc(C[C@@H]2NC(=O)[C@@H](Cc3ccc4ccccc4c3)NC(=O)[C@H](Cc3ccccc3)NC(=O)[C@H](Cc3ccccc3)NC(=O)[C@H](CCCCN)NC(=O)[C@@H](NC(=O)[C@@H](N)Cc3ccc(O)cc3)CSSC[C@@H](C(=O)O)NC(=O)[C@H](CO)NC(=O)[C@H]([C@@H](C)O)NC(=O)[C@H](Cc3ccccc3)NC(=O)[C@H]([C@@H](C)O)NC2=O)cc1 |
| > 1000 | 530 | > 10000 | > 10000 | > 10000 | CC(C)NCc1ccc(C[C@@H]2NC(=O)[C@@H](Cc3c[nH]c4ccccc34)NC(=O)[C@H](Cc3ccc(O)cc3)NC(=O)[C@H](Cc3ccccc3)NC(=O)[C@H](CCCCN)NC(=O)[C@@H](N)CSSC[C@@H](C(=O)O)NC(=O)[C@H](CO)NC(=O)[C@H]([C@@H](C)O)NC(=O)[C@H](Cc3ccccc3)NC(=O)[C@H]([C@@H](C)O)NC2=O)cc1 |
| > 10000 | > 1000 | > 1000 | > 1000 | > 10000 | CC(C)NCc1ccc(C[C@@H]2NC(=O)[C@@H](Cc3cn(Cc4ccccc4)cn3)NC(=O)[C@H](Cc3ccccc3)NC(=O)[C@H](Cc3ccccc3)NC(=O)[C@H](CCCCN)NC(=O)[C@@H](N)CSSC[C@@H](C(=O)O)NC(=O)[C@H](CO)NC(=O)[C@H]([C@@H](C)O)NC(=O)[C@H](Cc3ccccc3)NC(=O)[C@H]([C@@H](C)O)NC2=O)cc1 |
| > 10000 | > 1000 | > 10000 | > 10000 | > 10000 | CC(C)CN(Cc1ccc(C[C@@H]2NC(=O)[C@@H](Cc3c[nH]c4ccccc34)NC(=O)[C@H](Cc3ccccc3)NC(=O)[C@H](Cc3ccccc3)NC(=O)[C@H](CCCCN)NC(=O)[C@@H](N)CSSC[C@@H](C(=O)O)NC(=O)[C@H](CO)NC(=O)[C@H]([C@@H](C)O)NC(=O)[C@H](Cc3ccccc3)NC(=O)[C@H]([C@@H](C)O)NC2=O)cc1)CC(C)C |
| > 1000 | 101 | 280 | 556 | > 10000 | CNCc1ccc(C[C@@H]2NC(=O)[C@@H](Cc3ccc4ccccc4c3)NC(=O)[C@H](Cc3ccccc3)NC(=O)[C@H](Cc3ccccc3)NC(=O)[C@H](CCCCN)NC(=O)[C@@H](N)CSSC[C@@H](C(=O)O)NC(=O)[C@H](CO)NC(=O)[C@H]([C@@H](C)O)NC(=O)[C@H](Cc3ccccc3)NC(=O)[C@H]([C@@H](C)O)NC2=O)cc1 |
| 385 | 347 | 81 | 343 | > 1000 | C[C@@H](O)[C@@H]1NC(=O)[C@H](Cc2ccccc2)NC(=O)[C@H]([C@@H](C)O)NC(=O)[C@H](Cc2ccc(CN)cc2)NC(=O)[C@@H](Cc2ccc3ccccc3c2)NC(=O)[C@H](Cc2ccccc2)NC(=O)[C@H](Cc2ccccc2)NC(=O)[C@H](CCCCN)NC(=O)[C@@H](N)CSSC[C@@H](C(=O)O)NC(=O)[C@H](CO)NC1=O |
| 5 | 1 | 3.4 | 42.5 | 1.7 | C[C@H](N)C(=O)NCC(=O)N[C@H]1CSSC[C@@H](C(=O)O)NC(=O)[C@H](CO)NC(=O)[C@H]([C@@H](C)O)NC(=O)[C@H](Cc2ccccc2)NC(=O)[C@H]([C@@H](C)O)NC(=O)[C@H](CCCCN)NC(=O)[C@@H](Cc2c[nH]c3ccccc23)NC(=O)[C@H](Cc2ccccc2)NC(=O)[C@H](Cc2ccccc2)NC(=O)[C@H](CCCCN)NC1=O (H-AGCKFF[dW]KTFTSC-OH; disulfide 3-13) |
| > 10000 | 103 | > 1000 | > 1000 | > 1000 | CC(C)NCc1ccc(C[C@@H]2NC(=O)[C@@H](Cc3ccc4ccccc4c3)NC(=O)[C@H](Cc3ccccc3)NC(=O)[C@H](Cc3ccccc3)NC(=O)[C@H](CCCCN)NC(=O)[C@@H](N)CSSC[C@@H](C(=O)O)NC(=O)[C@H](CO)NC(=O)[C@H]([C@@H](C)O)NC(=O)[C@H](Cc3ccccc3)NC(=O)[C@H]([C@@H](C)O)NC2=O)cc1 (H-CKFF[d2Nal][Phe(4-CH2NHiPr)]TFTSC-OH; disulfide 1-11) |
| 190 | 309 | 273 | 213 | 267 | C[C@@H](O)[C@@H]1NC(=O)[C@H](Cc2ccccc2)NC(=O)[C@H]([C@@H](C)O)NC(=O)[C@H](Cc2ccc(CN)cc2)NC(=O)[C@@H](Cc2c[nH]c3ccccc23)NC(=O)[C@H](Cc2ccccc2)NC(=O)[C@H](Cc2ccccc2)NC(=O)[C@H](CCCCN)NC(=O)[C@@H](N)CSSC[C@@H](C(=O)O)NC(=O)[C@H](CO)NC1=O (H-CKFF[dW][Phe(4-CH2NH2)]TFTSC-OH; disulfide 1-11) |
| > 1000 | 187 | > 1000 | > 10000 | > 1000 | CC(C)NCc1ccc(C[C@@H]2NC(=O)[C@@H](Cc3c[nH]c4ccccc34)NC(=O)[C@H](Cc3ccccc3)NC(=O)[C@H](Cc3ccccc3)NC(=O)[C@H](CCCCN)NC(=O)[C@@H](N)CSSC[C@@H](C(=O)O)NC(=O)[C@@H](CO)NC(=O)[C@H]([C@@H](C)O)NC(=O)[C@H](Cc3ccccc3)NC(=O)[C@H]([C@@H](C)O)NC2=O)cc1 (H-CKFF[dW][Phe(4-CH2NHiPr)]TFT[dS]C-OH; disulfide 1-11) |
